Results: patent US6573218B1, “Fused-benzene derivatives useful as herbicides” (Ishihara Sangyo Kaisha, Ltd., priority 1998, dated 2003)

Experiments:
Type in all cases: in vivo
[1] = test system: barnyardgrass (Echinochloa crus-galli, ECHCG); test: Pre-emerge greenhouse herbicide test; settings: 250 g ai/ha, 14 days after application, scale 0-100 (0 no damage, 100 complete death)
Excerpt: (§1) A standard greenhouse herbicide activity screening system was used to evaluate the herbicidal efficacy and crop safety of these test compounds. Seven broadleaf weed species including redroot pigweed (Amaranthus retroflexus, AMARE), velvetleaf (Abutilon theophrasti, ABUTH), sicklepod (Cassia obtusifolia, CASOB), ivyleaf morningglory (Ipomoea hederacea, IPOHE), lambsquarters (Chenopodium album, CHEAL), common ragweed (Ambrosia artemisiifolia L., AMBEL), and cocklebur (Xanthium strumarium, XANST) were used as test species. Four grass weed species including green foxtail (Setaria viridis, SETVI), barnyardgrass (Echinochloa crus-galli, ECHCG), johnsongrass (Sorghum halepense, SORHA), and large crabgrass (Digitaria sanguinalis, DIGSA) were also used. In addition, three crop species, field corn (Zea mays L., var. Dekalb 527, CORN), soybean (Glycine max L., var. Pella 86, SOY), and upland rice (Ory0a sp., var.Tebonnet, RICE) were included.
(§2) All plants were grown in 10 cm square plastic pots which were filled with a sandy loam soil mix. For pre-emerge tests, seeds were planted one day prior to application of the test compounds. For post-emerge tests, seeds were planted 8-21 days prior to the test to allow emergence and good foliage development prior to application of the test substances. At the time of the post-emerge application, plants of all species were usually at the 2-3 leaf stage of development.
(§3) All test compounds were dissolved in acetone and applied to the test units in a volume of 187 l/ha. Test materials were applied at rates ranging from 15 g ai/ha to 1000 g ai/ha using a track sprayer equipped with a TJ8001E even flow flat fan spray nozzle. Plants were arranged on a shelf so that the top of the canopy (post-emerge) or top of the soil surface (pre-emerge) was 40-45 cm below the nozzle. Pressurized air was used to force the test solution through the nozzle as it was mechanically advanced over the top of all test plants/pots. This application simulates a typical commercial field herbicide application.
(§4) In the post-emerge test, a commercial non-ionic surfactant was also included (0.25% v/v) to enhance wetting of the leaf surfaces of target plants. Immediately after application, test units of the pre-emerge applications were watered at the soil surface to incorporate the test materials.
(§5) At 14 days after application of the test materials, phytotoxicity ratings were recorded. A rating scale of 0-100 was used as previously described in Research Methods in Weed Science, 2nd edition, B. Truelove, Ed., Southern Weed Science Society, Auburn University, Auburn, Ala., 1977. Briefly, “0” corresponds to no damage and “100” corresponds to complete death of all plants in the test unit. This scale was used both to determine efficacy against weed species and damage to crop species. Herbicide activity data for various compounds of this invention, which are shown by compound No. in Tables 1-14, are shown in Tables 16 and 17.

[2] = test system: green foxtail (Setaria viridis, SETVI); test: Pre-emerge greenhouse herbicide test; settings: 250 g ai/ha, 14 days after application, scale 0-100 (0 no damage, 100 complete death)
Excerpt: as §1, §2, §3, §4, §5

[3] = test system: ivyleaf morningglory (Ipomoea hederacea, IPOHE); test: Pre-emerge greenhouse herbicide test; settings: 250 g ai/ha, 14 days after application, scale 0-100 (0 no damage, 100 complete death)
Excerpt: as §1, §2, §3, §4, §5

[4] = test system: johnsongrass (Sorghum halepense, SORHA); test: Pre-emerge greenhouse herbicide test; settings: 250 g ai/ha, 14 days after application, scale 0-100 (0 no damage, 100 complete death)
Excerpt: as §1, §2, §3, §4, §5

[5] = test system: lambsquarters (Chenopodium album, CHEAL); test: Pre-emerge greenhouse herbicide test; settings: 250 g ai/ha, 14 days after application, scale 0-100 (0 no damage, 100 complete death)
Excerpt: as §1, §2, §3, §4, §5

[6] = test system: large crabgrass (Digitaria sanguinalis, DIGSA); test: Pre-emerge greenhouse herbicide test; settings: 250 g ai/ha, 14 days after application, scale 0-100 (0 no damage, 100 complete death)
Excerpt: as §1, §2, §3, §4, §5

[7] = test system: redroot pigweed (Amaranthus retroflexus, AMARE); test: Pre-emerge greenhouse herbicide test; settings: 250 g ai/ha, 14 days after application, scale 0-100 (0 no damage, 100 complete death)
Excerpt: as §1, §2, §3, §4, §5

[8] = test system: sicklepod (Cassia obtusifolia, CASOB); test: Pre-emerge greenhouse herbicide test; settings: 250 g ai/ha, 14 days after application, scale 0-100 (0 no damage, 100 complete death)
Excerpt: as §1, §2, §3, §4, §5

[9] = test system: velvetleaf (Abutilon theophrasti, ABUTH); test: Pre-emerge greenhouse herbicide test; settings: 250 g ai/ha, 14 days after application, scale 0-100 (0 no damage, 100 complete death)
Excerpt: as §1, §2, §3, §4, §5

[10] = test system: field corn (Zea mays L., var. Dekalb 527, CORN); test: Pre-emerge greenhouse crop damage test; settings: var. Dekalb 527, field corn (Zea mays L.), in vivo, 14 days
Excerpt: as §1, §2, §3, §4, §5

[11] = test system: soybean (Glycine max L., var. Pella 86, SOY); test: Pre-emerge greenhouse crop damage test; settings: var. Pella 86, soybean (Glycine max L.), in vivo, 14 days
Excerpt: as §1, §2, §3, §4, §5

[12] = test system: upland rice (Ory0a sp., var.Tebonnet, RICE); test: Pre-emerge greenhouse crop damage test; settings: var. Tebonnet, upland rice (Ory0a sp.), in vivo, 14 days
Excerpt: as §1, §2, §3, §4, §5

[13] = test system: barnyardgrass (Echinochloa crus-galli, ECHCG); test: Post-emerge greenhouse herbicide test; settings: 250 g ai/ha, 14 days after application
Excerpt: as §1, §2, §3, §4, §5

[14] = test system: green foxtail (Setaria viridis, SETVI); test: Post-emerge greenhouse herbicide test; settings: 250 g ai/ha, 14 days after application
Excerpt: as §1, §2, §3, §4, §5

[15] = test system: ivyleaf morningglory (Ipomoea hederacea, IPOHE); test: Post-emerge greenhouse herbicide test; settings: 250 g ai/ha, 14 days after application
Excerpt: as §1, §2, §3, §4, §5

[16] = test system: johnsongrass (Sorghum halepense, SORHA); test: Post-emerge greenhouse herbicide test; settings: 250 g ai/ha, 14 days after application
Excerpt: as §1, §2, §3, §4, §5

[17] = test system: lambsquarters (Chenopodium album, CHEAL); test: Post-emerge greenhouse herbicide test; settings: 250 g ai/ha, 14 days after application
Excerpt: as §1, §2, §3, §4, §5

[18] = test system: large crabgrass (Digitaria sanguinalis, DIGSA); test: Post-emerge greenhouse herbicide test; settings: 250 g ai/ha, 14 days after application
Excerpt: as §1, §2, §3, §4, §5

[19] = test system: redroot pigweed (Amaranthus retroflexus, AMARE); test: Post-emerge greenhouse herbicide test; settings: 250 g ai/ha, 14 days after application
Excerpt: as §1, §2, §3, §4, §5

[20] = test system: sicklepod (Cassia obtusifolia, CASOB); test: Post-emerge greenhouse herbicide test; settings: 250 g ai/ha, 14 days after application
Excerpt: as §1, §2, §3, §4, §5

[21] = test system: velvetleaf (Abutilon theophrasti, ABUTH); test: Post-emerge greenhouse herbicide test; settings: 250 g ai/ha, 14 days after application
Excerpt: as §1, §2, §3, §4, §5

[22] = test system: field corn (Zea mays L., var. Dekalb 527, CORN); test: Post-emerge greenhouse crop damage test; settings: var. Dekalb 527, field corn (Zea mays L.), in vivo, 14 days
Excerpt: as §1, §2, §3, §4, §5

[23] = test system: soybean (Glycine max L., var. Pella 86, SOY); test: Post-emerge greenhouse crop damage test; settings: var. Pella 86, soybean (Glycine max L.), in vivo, 14 days
Excerpt: as §1, §2, §3, §4, §5

[24] = test system: upland rice (Ory0a sp., var.Tebonnet, RICE); test: Post-emerge greenhouse crop damage test; settings: var. Tebonnet, upland rice (Ory0a sp.), in vivo, 14 days
Excerpt: as §1, §2, §3, §4, §5

Cn1c(C(F)(F)F)cc(=O)n(-c2c(F)cc(Cl)c3c2N=C(c2ccccc2)CO3)c1=O [Compound 1-3, 3-(8-Chloro-6-fluoro-3-phenyl-2H-1,4-benzoxazin-5-yl)-1-methyl-6-trifluoromethyl-2,4(1H,3H)-pyrimidindione]
Pre-emerge Herbicidal Activity ECHCG (phytotoxicity rating) [1]: 0
Pre-emerge Herbicidal Activity SETVI (phytotoxicity rating) [2]: 80
Pre-emerge Herbicidal Activity IPOHE (phytotoxicity rating) [3]: 0
Pre-emerge Herbicidal Activity SORHA (phytotoxicity rating) [4]: 0
Pre-emerge Herbicidal Activity CHEAL (phytotoxicity rating) [5]: 100
Pre-emerge Herbicidal Activity DIGSA (phytotoxicity rating) [6]: 0
Pre-emerge Herbicidal Activity AMARE (phytotoxicity rating) [7]: 100
Pre-emerge Herbicidal Activity CASOB (phytotoxicity rating) [8]: 80
Pre-emerge Herbicidal Activity ABUTH (phytotoxicity rating) [9]: 80
Pre-emerge Herbicidal Activity CORN (crop damage rating) [10]: 0
Pre-emerge Herbicidal Activity SOY (crop damage rating) [11]: 0
Pre-emerge Herbicidal Activity RICE (crop damage rating) [12]: 10
Post-emerge Herbicidal Activity ECHCG (phytotoxicity rating 0-100) [13]: 0
Post-emerge Herbicidal Activity SETVI (phytotoxicity rating 0-100) [14]: 0
Post-emerge Herbicidal Activity IPOHE (phytotoxicity rating 0-100) [15]: 30
Post-emerge Herbicidal Activity SORHA (phytotoxicity rating 0-100) [16]: 0
Post-emerge Herbicidal Activity CHEAL (phytotoxicity rating 0-100) [17]: 20
Post-emerge Herbicidal Activity DIGSA (phytotoxicity rating 0-100) [18]: 0
Post-emerge Herbicidal Activity AMARE (phytotoxicity rating 0-100) [19]: 60
Post-emerge Herbicidal Activity CASOB (phytotoxicity rating 0-100) [20]: 0
Post-emerge Herbicidal Activity ABUTH (phytotoxicity rating 0-100) [21]: 90
Post-emerge crop damage CORN (phytotoxicity rating 0-100) [22]: 10
Post-emerge crop damage SOY (phytotoxicity rating 0-100) [23]: 30
Post-emerge crop damage RICE (phytotoxicity rating 0-100) [24]: 20

CCc1nc2c(-n3c(=O)n4n(c3=S)CCC=C4)c(F)cc(Cl)c2o1 [Compound 8-1, 8-(7-Chloro-2-ethyl-5-fluorobenzoxazol-4-yl)-1,6,8-triazabicyclo[4,3,0]2-nonene-9-one-7-thione]
Pre-emerge Herbicidal Activity ECHCG (phytotoxicity rating) [1]: 90
Pre-emerge Herbicidal Activity SETVI (phytotoxicity rating) [2]: 100
Pre-emerge Herbicidal Activity IPOHE (phytotoxicity rating) [3]: 60
Pre-emerge Herbicidal Activity SORHA (phytotoxicity rating) [4]: 100
Pre-emerge Herbicidal Activity CHEAL (phytotoxicity rating) [5]: 100
Pre-emerge Herbicidal Activity DIGSA (phytotoxicity rating) [6]: 100
Pre-emerge Herbicidal Activity AMARE (phytotoxicity rating) [7]: 100
Pre-emerge Herbicidal Activity CASOB (phytotoxicity rating) [8]: 90
Pre-emerge Herbicidal Activity ABUTH (phytotoxicity rating) [9]: 100
Pre-emerge Herbicidal Activity CORN (crop damage rating) [10]: 50
Pre-emerge Herbicidal Activity SOY (crop damage rating) [11]: 60
Pre-emerge Herbicidal Activity RICE (crop damage rating) [12]: 20
Post-emerge Herbicidal Activity ECHCG (phytotoxicity rating 0-100) [13]: 90
Post-emerge Herbicidal Activity SETVI (phytotoxicity rating 0-100) [14]: 100
Post-emerge Herbicidal Activity IPOHE (phytotoxicity rating 0-100) [15]: 100
Post-emerge Herbicidal Activity SORHA (phytotoxicity rating 0-100) [16]: 99
Post-emerge Herbicidal Activity CHEAL (phytotoxicity rating 0-100) [17]: 99
Post-emerge Herbicidal Activity DIGSA (phytotoxicity rating 0-100) [18]: 70
Post-emerge Herbicidal Activity AMARE (phytotoxicity rating 0-100) [19]: 100
Post-emerge Herbicidal Activity CASOB (phytotoxicity rating 0-100) [20]: 100
Post-emerge Herbicidal Activity ABUTH (phytotoxicity rating 0-100) [21]: 100
Post-emerge crop damage CORN (phytotoxicity rating 0-100) [22]: 80
Post-emerge crop damage SOY (phytotoxicity rating 0-100) [23]: 100
Post-emerge crop damage RICE (phytotoxicity rating 0-100) [24]: 80
